Data reported in US10485741B2 (WONKWANG UNIVERSITY CENTER FOR INDUSTRY-ACADEMY COOPERATION, priority 2016, dated 2019).
Values after ≈ are worked out from the molar mass of the structure shown. Like-named read-outs stand apart in the source and are kept apart here.

Columns and labels:
Assay type in all cases: cell-based, Streptococcus mutans
S. mutans (ATCC 25175) = test: Agar diffusion test (paper disc), antibacterial substance alone; conditions: for diameter of the S. mutans inhibition zone, 0.1 mM antibacterial substance alone: 5 μL of 0.1 mM substance on 6 mm paper disc; for diameter of the S. mutans inhibition zone, 0.1 mM antibacterial substance alone / diameter of the S. mutans inhibition zone, 1 mM antibacterial substance alone / diameter of the S. mutans inhibition zone, 10 mM antibacterial substance alone: 24 h, positive control 10 μL/ml ampicillin; for diameter of the S. mutans inhibition zone, 1 mM antibacterial substance alone: 5 μL of 1 mM substance on 6 mm paper disc; for diameter of the S. mutans inhibition zone, 10 mM antibacterial substance alone: 5 μL of 10 mM substance on 6 mm paper disc; for antibacterial activities against S. mutans (in words): screening from a total 100 substances; for activities against S. mutans (in words): 0.1 mM antibacterial substance
Procedure: Specifically, S. mutans was primarily cultured in a BHI medium in a CO2 incubator at 37°C. for 24 hours. Then, 200 μL of a suspension of S. mutans was inoculated into BHI and secondarily cultured for 6 hours. Then, the OD value was measured with Eppendorf Biophotometer plus. After the measurement, the bacteria were mixed with top agar and then inoculated into the agar medium containing base agar. After top agar hardened, a 6 mm diameter paper disc was placed on the agar medium. 5 μL of each of 0.1 mM, 1 mM and 10 mM antibacterial substances was dropped on the paper disc. 10 μL/ml of ampicilin was used as the positive control, and PBS was used as the negative control. After culturing in a CO2 incubator at 37°C for 24 hours, the diameter of the S. mutans inhibition zone formed around the paper disc was measured in two perpendicular locations and the average was calculated to evaluate the antibacterial activities. The average was expressed in mm.

S. mutans [1] = test: Agar diffusion test of fluoride varnish of hydrogenated rosin mixed with antibacterial substance, inhibition zone; conditions: for Inhibition zone, Fluoride varnish + 1 mM substance / Inhibition zone, Fluoride varnish + 10 mM substance: substance mixed 1:1 with fluoride varnish, positive control = ampicillin alone; for antibacterial activities of fluoride varnish mixed with substance compared with a fluoride varnish alone (in words): 1 mM or 10 mM antibacterial substance
Procedure: Antibacterial substance powders were dissolved in DMSO to 100 mM and stored. It was diluted with DMSO to prepare 20 mM and 2 mM antibacterial substances.
Specifically, S. mutans was primarily cultured in a BHI medium in a CO2 incubator at 37°C. for 24 hours. Then, 200 μL of a suspension of S. mutans was inoculated into BHI and secondarily cultured for 6 hours. Then, the OD value was measured with Eppendorf Biophotometer plus. After the measurement, the bacteria were mixed with top agar and then inoculated into the agar medium containing base agar. After top agar hardened, a 6 mm diameter paper disc was placed on the agar medium.
5 μL of each of 0.1 mM, 1 mM and 10 mM antibacterial substances was dropped on the paper disc. 10 μL/ml of ampicilin was used as the positive control, and PBS was used as the negative control. After culturing in a CO2 incubator at 37°C for 24 hours, the diameter of the S. mutans inhibition zone formed around the paper disc was measured in two perpendicular locations and the average was calculated to evaluate the antibacterial activities. The average was expressed in mm.
Fluoride varnishes mixed with an antibacterial substance which comprise an antibacterial substance tested in Test Example 1 were prepared according to the method described in Example 2 and the antibacterial activities thereof were tested.

S. mutans [2] = test: Formation of Semi-inhibition zone by fluoride varnish mixed with antibacterial substance (agar diffusion); conditions: for Semi-inhibition zone, Fluoride varnish + 1 mM substance / Semi-inhibition zone, Fluoride varnish + 10 mM substance: Table 4, substance mixed 1:1 with fluoride varnish, positive control = ampicillin alone
Excerpt: In addition, the formation of Semi-inhibition zone was investigated according to the same method as in Test Example 1.

S. mutans [3] = test: Minimum inhibitory concentration (MIC) and minimal bactericidal concentration (MBC), 96-well BHI broth dilution; conditions: for MIC: BHI broth, 24-hour culture, absorbance at 600 nm
Procedure: The minimum inhibitory concentration and minimal bactericidal concentration of antibacterial substances were identified using S. mutans, which is related to dental caries, as the strain. Specifically, in order to measure MIC, a 96-well plate containing 100 μL of BHI broth per well was used. Antibacterial substances were used at a concentration of 16 mM, and the substance No. 1-2 of Example 1 was used at a concentration of 1 mM. The antibacterial materials were transferred to the first well and diluted stepwise. The substance No. 1-2 was diluted to 1 mM to 0.004375 mM and the other antibacterial substances were diluted to 16 mM to 0.007 mM. S. mutans was activated using BHI broth as the medium and cultured in a CO2 incubator at 37° C. for 24 hours. Then, the bacteria were cultured for another 6 hours, and then 100 μL thereof was added to each well of the 96-well plate. After 24-hour culture, the minimum inhibitory concentration was determined by measuring the absorbance at 600 nm with Enzyme-linked immuno-assay reader (Spectra MAX250, Molecular Devices Co.).

[4] = listed as xanthorrhizol (Santa Cruz)
[5] = listed as xanthorrhizol (BioAlpha)
[6] = Streptococcus mutans, 24 h, read-out: MIC
[7] = Streptococcus mutans, read-out: MBC

SMILES | diameter of the S. mutans inhibition zone, 0.1 mM antibacterial substance alone (S. mutans (ATCC 25175)) [mm] | diameter of the S. mutans inhibition zone, 1 mM antibacterial substance alone (S. mutans (ATCC 25175)) [mm] | diameter of the S. mutans inhibition zone, 10 mM antibacterial substance alone (S. mutans (ATCC 25175)) [mm] | Inhibition zone, Fluoride varnish + 1 mM substance (S. mutans [1]; primary test (Table 2)) [mm] | Inhibition zone, Fluoride varnish + 10 mM substance (S. mutans [1]; primary test (Table 2)) [mm] | Inhibition zone, Fluoride varnish + 1 mM substance (S. mutans [1]; secondary test (Table 3)) [mm] | Inhibition zone, Fluoride varnish + 10 mM substance (S. mutans [1]; secondary test (Table 3)) [mm] | Semi-inhibition zone, Fluoride varnish + 1 mM substance (S. mutans [2]) [mm] | Semi-inhibition zone, Fluoride varnish + 10 mM substance (S. mutans [2]) [mm] | MIC, rank (in words) (S. mutans [3]) | antibacterial activities against S. mutans (in words) (S. mutans (ATCC 25175)) | antibacterial activities of fluoride varnish mixed with substance compared with a fluoride varnish alone (in words) (S. mutans [1]; primary test) | MIC (S. mutans [3]; [6]) [µM] | MBC (S. mutans [3]; [7]) [µM] | also measured
CC(C)=CCC[C@@H](C)c1ccc(C)c(O)c1 [No. 1-1, xanthorrhizol] | 6 | 6 | 7.75 | 9.14 | 10.62 | 8.64 | 10.28 | 25.515 | 25.725 |  |  |  |  |  | MIC (S. mutans [3]; [4]): 62 µM (≈ 13.5 µg/mL); MBC (S. mutans [3]; [4]): 125 µM (≈ 27.3 µg/mL)
CC(C)=CCC[C@@H](C)c1ccc(C)c(O)c1 [No. 1-2, xanthorrhizol] | 8.26 | 10.3 |  | 8.58 |  | 9.65 |  | 12.265 |  | lowest MIC |  |  |  |  | MIC (S. mutans [3]; [5]): 15 µM (≈ 3.28 µg/mL); MBC (S. mutans [3]; [5]): 62 µM (≈ 13.5 µg/mL)
C=C[C@@](C)(/C=C/c1ccc(O)cc1)CCC=C(C)C [No. 2, Bakuchiol] | 6 | 8.9 | 14.5 | 9.55 | 9.82 | 8.53 | 10.10 | 22.87 | 26.705 | lowest MIC | significant antibacterial activities | significant antibacterial activities | 15 (≈ 3.85 µg/mL) | 31 (≈ 7.95 µg/mL) | MBC, rank (in words) (S. mutans [3]): lowest MBC
CC(C)=CCc1cc(C(=O)/C=C/c2ccc(O)cc2)c(O)cc1O [No. 3, Bavachalcone] | 9.63 | 14.51 | 18.87 | 11.31 | 15.35 | 12.79 | 13.17 | 34.025 | 20.74 | lowest MIC | significant antibacterial activities | significant antibacterial activities | 15 (≈ 4.87 µg/mL) | 62 (≈ 20.1 µg/mL) | activities against S. mutans (in words) (S. mutans (ATCC 25175)): significant activities; activities against S. mutans, rank (in words) (S. mutans (ATCC 25175); 1 mM antibacterial substance): highest activities; activities against S. mutans, rank (in words) (S. mutans (ATCC 25175); 10 mM antibacterial substance): highest activities; increase of antibacterial activities of fluoride varnish mixed with substance (S. mutans [1]; primary test, compared with a fluoride varnish alone): ≥ 70%; antibacterial activities of fluoride varnish mixed with substance (in words) (S. mutans [1]; secondary test): remarkable antibacterial activities; formation of Semi-inhibition zone (in words) (S. mutans [2]): largest Semi-inhibition zone
CC1(C)C=Cc2c(ccc(C(=O)/C=C/c3ccc(O)cc3)c2O)O1 [No. 4, Isobavachromene] | 6 | 8.71 | 9.91 | 9.94 | 10.93 | 9.17 | 9.96 | 20.795 | 24.81 | lowest MIC | significant antibacterial activities | significant antibacterial activities | 15 (≈ 4.84 µg/mL) | 125 (≈ 40.3 µg/mL) | 
CC1(C)C=Cc2cc(C(=O)/C=C/c3ccc(O)cc3)c(O)cc2O1 [No. 5, Bavachromene] | 6 | 8.75 | 9.74 | 10.27 | 10.60 | 8.66 | 10.48 | 20.79 | 25.235 |  | significant antibacterial activities | significant antibacterial activities | 31 (≈ 9.99 µg/mL) | 125 (≈ 40.3 µg/mL) | antibacterial activities against S. mutans in all conditions (in words) (S. mutans (ATCC 25175); 10 mM, 1 mM and 0.1 mM): significant antibacterial activities
CC1(C)S[C@@H]2[C@H](NC(=O)[C@H](N)c3ccccc3)C(=O)N2[C@H]1C(=O)O [Positive control group, ampicillin, reference compound] | 17.24 | 22.2 | 22.4 | 18.05 | 18.72 | 13.55 | 14.84 | 13.55 | 14.84 |  |  |  |  |  | formation of Semi-inhibition zone (in words) (S. mutans [2]): did not form a Semi-inhibition zone
CC(C)=CCC[C@@H](C)c1ccc(C)c(O)c1 [xanthorrhizol] |  |  |  |  |  |  |  |  |  |  | significant antibacterial activities | significant antibacterial activities |  |  | activities against S. mutans (in words) (S. mutans (ATCC 25175)): significant activities
